From PMC7822819, “Discovery of a new class of integrin antibodies for fibrosis” (Scientific Reports, 2021)

Assays:
Assay type in all cases: cell-based
human αvβ8 = human αvβ8 (Homo sapiens, UniProt P06756+P26012); assay: Latent TGFβ activation assay (TMLC / CHOK1-integrin co-culture, PAI-1 luciferase); parameters: expressed in transfected cells; conditions: in words
Protocol: (§1) Transfected mink lung epithelial cell (TMLC) cell line containing the TGFβ responsive PAI-1 promoter driving luciferase expression[29] and the CHO-K1 human and mouse αvβx integrin cell lines were grown under optimized growth conditions to 90% confluency. TMLC cells were trypsinized and plated at 25,000 cells/well in 50 μL in Costar clear bottom white walled plates. In a separate plate, 25 μL of serially diluted antibodies at 4X concentration were added to wells containing 25 μL of either 25,000 cells of human or mouse αvβx cells. After a brief mixing, the 50 μL mixture was transferred to the TMLC cell plates for a total volume of 100 μL and incubated at 37 °C for 16 h. 100 μL of ONE-Glo kit (#PRE6120) was added to each well and read after 3–5 min on the Envision plate reader.

mouse αvβ1 = mouse αvβ1 (Mus musculus, UniProt P09055+P43406); assay: as above; parameters: expressed in transfected cells; conditions: in words
Protocol: as §1

human αvβ6 = human αvβ6 (Homo sapiens, UniProt P06756+P18564); assay: as above; parameters: expressed in transfected cells; conditions: in words
Protocol: as §1

human αvβ1 = human αvβ1 (Homo sapiens, UniProt P05556+P06756); assay: as above; parameters: expressed in transfected cells; conditions: in words
Protocol: as §1

CHOK1-mαvβ5 cells = molecular target: T1, CHOK1-mαvβ5 cells (Mus musculus, UniProt O70309+P43406); assay: Cell adhesion assay (Epic) on vitronectin; conditions: vitronectin matrix; in words
T1 construct: expressed in transfected cells
Protocol: (§2) For plate preparation, Epic 384-well assay plates (Corning #5040) were washed with OptiMEM (Gibco #31985-070) and coated with murine fibronectin (Abcam #ab92784) at a concentration of 0.1 μg/well for CHO-a5KO-mαvβ1 cells; murine vitronectin (Abcam #ab92727) at 0.075 μg/well for CHO-mαvβ3 cells; or murine vitronectin at 0.125 μg/well for CHO-mαvβ5 (all at a volume of 25 μl/well in OptiMEM), for 1 h. Coating solution was then removed by flicking and plates were washed with OptiMEM and blocked with 25 μl/well of assay buffer [1% Ovalbumin (Sigma #A5503-10G) in OptiMEM containing 1X Pen-Strep (Gibco #15140-148)]. A 5-min baseline reading was taken on a Corning Epic Plate Reader (Model: Epic BT-157900) before removing the assay buffer and adding cells pre-incubated with inhibitors. The Epic plate reader detects cellular mass redistribution (adhesion) on the plate surface as a picometer wavelength shift over time. […] Cells were incubated with the inhibitors for 1 h at RT with gentle rocking, after which 50 μL per well was transferred to the Epic assay plate, and a time course of cell adhesion was monitored for an additional 3 h.

CHOK1-mαvβ3 cells = molecular target: T2, CHOK1-mαvβ3 cells (Mus musculus, UniProt O54890+P43406); assay: Cell adhesion assay (Epic) on vitronectin; conditions: vitronectin matrix; in words
T2 construct: expressed in transfected cells
Protocol: as §2

Sequence of human αvβ6 (P06756 31-1048): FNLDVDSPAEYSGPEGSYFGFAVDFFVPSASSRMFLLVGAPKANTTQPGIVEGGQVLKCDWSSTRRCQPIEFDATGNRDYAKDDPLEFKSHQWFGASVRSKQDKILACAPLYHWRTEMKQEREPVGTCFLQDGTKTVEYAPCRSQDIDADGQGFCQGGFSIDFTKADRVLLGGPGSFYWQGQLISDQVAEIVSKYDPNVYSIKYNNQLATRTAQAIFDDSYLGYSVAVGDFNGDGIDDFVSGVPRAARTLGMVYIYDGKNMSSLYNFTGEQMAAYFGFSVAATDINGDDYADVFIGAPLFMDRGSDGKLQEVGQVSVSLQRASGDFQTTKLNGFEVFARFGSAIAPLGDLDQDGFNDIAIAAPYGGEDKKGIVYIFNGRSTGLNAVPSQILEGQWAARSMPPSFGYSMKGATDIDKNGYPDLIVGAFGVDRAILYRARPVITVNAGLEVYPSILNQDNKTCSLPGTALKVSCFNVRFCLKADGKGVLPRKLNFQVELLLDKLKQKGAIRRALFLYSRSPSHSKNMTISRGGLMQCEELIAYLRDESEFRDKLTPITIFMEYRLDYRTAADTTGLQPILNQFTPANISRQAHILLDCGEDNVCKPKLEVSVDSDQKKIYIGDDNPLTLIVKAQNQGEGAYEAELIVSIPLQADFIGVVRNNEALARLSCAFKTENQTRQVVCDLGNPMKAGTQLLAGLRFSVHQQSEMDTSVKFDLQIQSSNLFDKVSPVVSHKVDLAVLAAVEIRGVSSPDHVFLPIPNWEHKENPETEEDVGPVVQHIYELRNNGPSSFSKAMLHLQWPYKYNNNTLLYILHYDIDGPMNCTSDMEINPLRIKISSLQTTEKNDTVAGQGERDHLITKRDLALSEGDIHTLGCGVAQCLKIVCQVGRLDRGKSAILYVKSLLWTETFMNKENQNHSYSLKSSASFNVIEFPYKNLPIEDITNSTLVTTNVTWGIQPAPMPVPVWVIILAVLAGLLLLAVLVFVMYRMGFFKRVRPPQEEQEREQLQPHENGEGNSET
Sequence of human αvβ6 (P18564 22-788): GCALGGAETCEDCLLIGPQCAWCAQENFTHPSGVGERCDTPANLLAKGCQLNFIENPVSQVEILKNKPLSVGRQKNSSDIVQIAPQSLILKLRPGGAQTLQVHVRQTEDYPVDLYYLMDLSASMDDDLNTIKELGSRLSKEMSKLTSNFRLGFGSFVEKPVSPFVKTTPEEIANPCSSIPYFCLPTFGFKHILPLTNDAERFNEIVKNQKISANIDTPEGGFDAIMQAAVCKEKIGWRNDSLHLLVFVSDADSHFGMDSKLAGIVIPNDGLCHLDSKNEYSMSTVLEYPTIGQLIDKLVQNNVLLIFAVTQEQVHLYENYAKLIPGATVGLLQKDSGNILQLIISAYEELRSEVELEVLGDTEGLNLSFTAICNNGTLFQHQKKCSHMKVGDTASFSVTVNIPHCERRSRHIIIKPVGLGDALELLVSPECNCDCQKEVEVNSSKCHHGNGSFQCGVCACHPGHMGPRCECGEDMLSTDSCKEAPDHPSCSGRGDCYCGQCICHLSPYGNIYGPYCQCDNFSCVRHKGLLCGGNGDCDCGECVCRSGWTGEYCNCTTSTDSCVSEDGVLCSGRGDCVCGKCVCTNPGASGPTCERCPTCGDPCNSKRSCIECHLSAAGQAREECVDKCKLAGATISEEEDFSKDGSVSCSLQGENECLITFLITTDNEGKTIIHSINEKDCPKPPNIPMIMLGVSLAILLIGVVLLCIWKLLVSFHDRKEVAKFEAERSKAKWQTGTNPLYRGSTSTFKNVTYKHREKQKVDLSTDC
Sequence of human αvβ8 (P06756 31-1048): as the sequence (P06756 31-1048) above
Sequence of human αvβ8 (P26012 43-769): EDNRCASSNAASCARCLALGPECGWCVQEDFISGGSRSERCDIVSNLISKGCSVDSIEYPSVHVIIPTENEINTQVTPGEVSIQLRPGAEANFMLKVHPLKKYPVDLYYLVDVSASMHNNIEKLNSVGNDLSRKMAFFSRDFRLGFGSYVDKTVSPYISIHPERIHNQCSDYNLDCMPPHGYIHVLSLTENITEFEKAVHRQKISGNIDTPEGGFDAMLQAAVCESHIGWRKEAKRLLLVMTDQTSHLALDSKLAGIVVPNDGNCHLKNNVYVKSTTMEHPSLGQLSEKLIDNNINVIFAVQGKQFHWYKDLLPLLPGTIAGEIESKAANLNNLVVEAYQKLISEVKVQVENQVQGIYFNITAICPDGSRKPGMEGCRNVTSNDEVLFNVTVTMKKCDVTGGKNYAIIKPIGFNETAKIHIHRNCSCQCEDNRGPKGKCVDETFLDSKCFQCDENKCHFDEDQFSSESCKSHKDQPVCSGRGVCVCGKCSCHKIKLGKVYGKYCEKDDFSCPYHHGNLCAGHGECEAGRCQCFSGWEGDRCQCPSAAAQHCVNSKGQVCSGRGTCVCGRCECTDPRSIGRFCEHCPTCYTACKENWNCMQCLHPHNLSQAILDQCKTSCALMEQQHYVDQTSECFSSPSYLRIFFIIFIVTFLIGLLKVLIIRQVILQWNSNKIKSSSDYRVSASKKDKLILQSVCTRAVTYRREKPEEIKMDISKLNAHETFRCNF
Sequence of human αvβ1 (P06756 31-1048): as the sequence (P06756 31-1048) above
Sequence of human αvβ1 (P05556 21-798): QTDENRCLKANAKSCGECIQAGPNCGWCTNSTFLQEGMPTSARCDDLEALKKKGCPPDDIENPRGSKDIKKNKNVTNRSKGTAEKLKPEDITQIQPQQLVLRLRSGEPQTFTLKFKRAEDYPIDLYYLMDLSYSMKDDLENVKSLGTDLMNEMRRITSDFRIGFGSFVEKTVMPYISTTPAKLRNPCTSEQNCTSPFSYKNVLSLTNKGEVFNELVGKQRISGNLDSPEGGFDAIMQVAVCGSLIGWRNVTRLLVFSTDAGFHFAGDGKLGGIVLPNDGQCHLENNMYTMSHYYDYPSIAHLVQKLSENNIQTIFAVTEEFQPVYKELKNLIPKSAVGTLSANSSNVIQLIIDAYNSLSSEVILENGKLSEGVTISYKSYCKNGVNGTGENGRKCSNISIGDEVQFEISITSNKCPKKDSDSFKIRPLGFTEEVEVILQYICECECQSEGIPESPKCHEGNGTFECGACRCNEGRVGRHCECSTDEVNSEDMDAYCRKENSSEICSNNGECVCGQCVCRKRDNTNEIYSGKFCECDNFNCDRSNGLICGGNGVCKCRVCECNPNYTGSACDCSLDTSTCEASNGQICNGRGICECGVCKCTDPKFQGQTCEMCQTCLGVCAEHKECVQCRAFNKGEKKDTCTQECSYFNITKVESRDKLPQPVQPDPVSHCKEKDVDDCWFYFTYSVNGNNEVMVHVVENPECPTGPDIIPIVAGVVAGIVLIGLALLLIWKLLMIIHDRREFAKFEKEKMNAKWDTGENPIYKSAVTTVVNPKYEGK

Inhibition of latent TGFβ activation, human αvβ8 co-culture (human αvβ8): strong inhibitory effect | Inhibition of latent TGFβ activation, mouse αvβ1 co-culture (mouse αvβ1): strong inhibitory effect | Inhibition of latent TGFβ activation, human αvβ6 co-culture (human αvβ6): strong inhibitory effect | Inhibition of latent TGFβ activation, human αvβ1 co-culture (human αvβ1): strong inhibitory effect | Effect on cell adhesion, mouse αvβ5 (CHOK1-mαvβ5 cells): decreased | Effect on cell adhesion, mouse αvβ3 (CHOK1-mαvβ3 cells): decreased
SMILES: COc1ccc(C(CC(=O)O)N2CCN(CCCc3ccc4c(n3)NCCC4)C2=O)cn1 (stereo not drawn) [MK-0429]
